For orientation: AC50 means the concentration giving half of the maximal activity seen.

Active and inactive are the calls of the source. For most assays here, no stated cut-off is given here; in the data, actives have a measured EC50 and inactives only a lower limit.

Assay [1] has as its target T1, Protein RecA (Mycobacterium tuberculosis, UniProt P9WHJ3).
T1 sequence (P9WHJ3 whole entry): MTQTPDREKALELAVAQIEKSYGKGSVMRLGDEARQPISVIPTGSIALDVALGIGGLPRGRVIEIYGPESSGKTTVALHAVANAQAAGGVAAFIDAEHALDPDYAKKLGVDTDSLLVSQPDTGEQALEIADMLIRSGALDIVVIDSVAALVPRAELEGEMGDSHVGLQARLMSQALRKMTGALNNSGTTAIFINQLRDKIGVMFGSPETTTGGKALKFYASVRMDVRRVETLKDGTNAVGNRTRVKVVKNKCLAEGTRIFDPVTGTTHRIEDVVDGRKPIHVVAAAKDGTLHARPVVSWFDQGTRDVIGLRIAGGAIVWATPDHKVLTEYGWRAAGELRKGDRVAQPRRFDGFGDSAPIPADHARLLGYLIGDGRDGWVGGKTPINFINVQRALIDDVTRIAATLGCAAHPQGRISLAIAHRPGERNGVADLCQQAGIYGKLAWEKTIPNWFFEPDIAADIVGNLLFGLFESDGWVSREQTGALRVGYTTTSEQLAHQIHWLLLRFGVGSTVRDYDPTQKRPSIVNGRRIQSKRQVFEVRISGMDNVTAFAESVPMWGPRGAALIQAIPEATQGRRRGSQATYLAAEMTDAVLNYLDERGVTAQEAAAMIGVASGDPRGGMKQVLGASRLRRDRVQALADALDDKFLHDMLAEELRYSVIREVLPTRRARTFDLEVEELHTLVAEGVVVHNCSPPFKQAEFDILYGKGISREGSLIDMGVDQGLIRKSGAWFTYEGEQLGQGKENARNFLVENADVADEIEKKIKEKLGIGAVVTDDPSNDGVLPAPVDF
Description: Fluorescence Cell-Free Homogeneous Dose Retest to Identify Inhibitors of RecA-Intein Splicing Activity. [Related pubchem assays (depositor defined):AID2097, AID2223, AID489010, AID492950]. It is filed as functional.

Assay [2] concerns the target T2, Replicative DNA helicase DnaB (Mycobacterium tuberculosis, UniProt P9WMR3).
T2 sequence (P9WMR3 whole entry): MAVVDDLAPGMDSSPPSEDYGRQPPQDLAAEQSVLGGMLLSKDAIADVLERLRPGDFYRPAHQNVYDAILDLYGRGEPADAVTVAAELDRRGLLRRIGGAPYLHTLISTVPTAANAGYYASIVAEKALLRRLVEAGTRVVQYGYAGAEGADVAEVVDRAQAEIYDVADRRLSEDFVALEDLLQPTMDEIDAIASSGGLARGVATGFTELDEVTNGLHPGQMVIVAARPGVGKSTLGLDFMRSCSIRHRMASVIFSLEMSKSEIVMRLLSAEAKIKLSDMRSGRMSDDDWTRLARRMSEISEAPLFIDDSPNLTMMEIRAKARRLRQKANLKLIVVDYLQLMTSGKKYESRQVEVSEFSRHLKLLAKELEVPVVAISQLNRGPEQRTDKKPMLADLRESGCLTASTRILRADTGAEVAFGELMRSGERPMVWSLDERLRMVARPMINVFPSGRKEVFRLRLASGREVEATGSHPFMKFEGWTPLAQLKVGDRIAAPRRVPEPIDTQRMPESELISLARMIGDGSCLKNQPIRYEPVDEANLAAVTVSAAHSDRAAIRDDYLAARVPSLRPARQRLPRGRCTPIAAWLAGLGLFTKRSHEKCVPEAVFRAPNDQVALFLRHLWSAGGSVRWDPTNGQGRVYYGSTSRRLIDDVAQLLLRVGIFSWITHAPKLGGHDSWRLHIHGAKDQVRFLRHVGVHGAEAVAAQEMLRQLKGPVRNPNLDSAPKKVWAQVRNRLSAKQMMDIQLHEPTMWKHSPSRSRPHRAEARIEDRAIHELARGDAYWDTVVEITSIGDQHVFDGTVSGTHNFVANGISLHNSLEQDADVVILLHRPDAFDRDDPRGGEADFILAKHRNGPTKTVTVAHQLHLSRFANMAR
Description: DnaB intein splicing inhibitors, dose response, biochemical, cell-free fluorescence (AID 449749). Type of assay: functional.

Assay [3] is described as follows: non-specific 3'UTR reporter inhibition in Clone20-Shn3RL – cell-based, Renilla luciferase, cherry-picked, counter-screen for Shn3 inhibitor project, dose response (AID 624133). Type of assay: functional. In general terms: Counterscreens check selectivity or assay interference.
The nature of assay [4]: reduction of Shn3 3'UTR-driven luciferase in osteoblasts – cell-based, Clone20 osteoblasts, firefly luciferase, cherry-picked, dose response (AID 624132).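 Further: firefly luciferase luminescence from reporter carrying the Shn3 3'UTR in osteoblasts.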 Type of assay: functional.
A short description of assay [5]: Luminescence Cell-Based Dose Response HTS to Identify Inhibitors of 5'UTR Stem-Loop Driven Prion Protein mRNA Translation in H4 Neuroglioblastoma Cells. [Related pubchem assays: 1827 (Project Summary), 1813 (Primary HTS)]. Type of assay: functional.
Assay [6] is described as follows: alpha-synuclein stem-loop luciferase translation blockers – H4 neuroglioma cells, luminescence, confirmation (AID 1988). It is filed as functional, cell-based.
Assay [7] has as its system INS1. Description: INS-1E survival protection against cytokine death – cell-based, luminescence, retest, dose response (AID 449756).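 Further: cell death triggered by IL-1 beta plus TNF-alpha plus IFN-gamma mixture; protective hits raise ATP signal compared with cytokine alone wells.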 It is filed as functional. The conditions noted are these: Rattus norvegicus.
Assay [8] is described as follows: luciferase reporter signal suppression in cells – H4 neuroglioma cells, luminescence, dose response (AID 1990). Type of assay: functional, cell-based.
In assay [9] the target is T3, Corticotropin-releasing factor receptor 2/Corticotropin-releasing factor-binding protein (Homo sapiens, UniProt P24387+Q13324).
T3 sequence (Q13324 whole entry): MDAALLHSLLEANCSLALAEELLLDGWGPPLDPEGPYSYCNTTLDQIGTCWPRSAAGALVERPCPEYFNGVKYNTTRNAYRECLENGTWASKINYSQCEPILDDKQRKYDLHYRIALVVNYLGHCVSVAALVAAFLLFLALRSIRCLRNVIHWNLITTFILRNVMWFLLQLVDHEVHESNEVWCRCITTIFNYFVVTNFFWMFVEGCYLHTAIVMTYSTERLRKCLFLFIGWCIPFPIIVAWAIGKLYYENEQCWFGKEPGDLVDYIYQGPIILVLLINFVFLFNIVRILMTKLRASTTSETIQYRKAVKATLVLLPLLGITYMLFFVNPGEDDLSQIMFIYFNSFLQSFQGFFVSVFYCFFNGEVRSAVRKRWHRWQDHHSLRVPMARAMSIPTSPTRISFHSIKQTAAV
T3 sequence (P24387 whole entry): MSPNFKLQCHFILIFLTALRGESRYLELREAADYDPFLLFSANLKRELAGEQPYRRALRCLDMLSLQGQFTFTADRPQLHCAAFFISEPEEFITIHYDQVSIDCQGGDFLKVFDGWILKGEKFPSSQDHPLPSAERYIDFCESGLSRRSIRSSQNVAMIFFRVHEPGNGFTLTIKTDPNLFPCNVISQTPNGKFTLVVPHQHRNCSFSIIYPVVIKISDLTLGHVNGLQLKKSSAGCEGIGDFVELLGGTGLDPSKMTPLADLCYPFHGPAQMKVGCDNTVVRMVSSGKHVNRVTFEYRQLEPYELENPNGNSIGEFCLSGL
Description: Dose Response confirmation of uHTS hits for small molecule antagonists of the CRF-binding protein and CRF-R2 receptor complex. The conditions noted are these: read-out: IC50_Mean. Type of assay: functional.

The target in assay [10] is T3, Corticotropin-releasing factor receptor 2/Corticotropin-releasing factor-binding protein. Description: activators of CRF receptor 2 with binding protein – uHTS hits, confirmation (AID 602473). The conditions noted are these: read-out: EC50_Mean. It is filed as functional.
Assay [11] concerns Streptococcus. The assay is described as follows: GAS UMAA2166 growth inhibition – luminescence, BacTiterGlo, counter-screen for streptokinase expression inhibitor project, dose response (AID 1915).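 Further: potency for reduction of bacterial viability or growth.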 It is filed as functional, organism-based.
The test system of assay [12] is Streptococcus sp. 'group A'. Description: Streptococcus pyogenes SK(-)GAS viability under kanamycin – luminescence, BacTiterGlo, confirmation, counter-screen for streptokinase expression inhibitor project, dose response (AID 1900). Type of assay: functional, organism-based.
Assay [13] in a line: Luminescence Cell-Based Dose Response HTS to Identify Activators of Luciferase Translation or Activity in H4 […] Cells. [Related pubchem assays: 1829 (Project Summary), 1814 (Primary HTS)]. Type of assay: functional.
Assay [14] can be described thus: Trypanosoma cruzi growth suppression in host cells – NIH3T3 host cells, beta-gal luminescence, confirmation (AID 2044).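 Further: intracellular parasites grown in NIH/3T3 mouse fibroblasts as host cells; luminescent beta-galactosidase reporter signal from transgenic T. cruzi replicating inside host cells; inhibitors lower the luminescence signal.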 Type of assay: functional, cell-based.
Assay [15] in a line: NIH3T3 cell viability loss – ATP luminescence, mouse fibroblasts, counter-screen, dose response (AID 2010).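 Further: cells exposed to compound for about 90 hours before reading.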 Type of assay: functional, cell-based.
Assay [16] in a line: viability of PTEN-deleted HCT116 cells – cell-based, HCT116 PTEN knockout, dose response (AID 1047).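 Further: HCT116 colon tumor cells with PTEN knocked out; cells exposed to compound for 60 hours before readout; potency for loss of cell viability measured by luminescence.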 It is filed as functional.
A short description of assay [17]: viability of HCT116 lacking mutant beta-catenin – cell-based, human colon tumor, dose response (AID 1045).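 Further: HCT116 colon tumor cells with beta catenin knocked out; cells exposed to compound for 60 hours.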 It is filed as functional.

Regarding `CC(=O)N1C(=O)C2(C(C#N)=C(N)Oc3c2c(C)nn3-c2ccccc2)c2ccccc21` (stereo not given), the EC50 in [1] is 2.28 µM (active). In addition, the half-maximal activity concentration (AC50) in assay [2] is 4.34 µM (active).
Regarding `C[C@H]1COC(=O)[C@H](NC(=O)OCC2c3ccccc3-c3ccccc32)C/C=C\C[C@H](CC(=O)N(CCO)Cc2ccccc2)C(=O)N1`, the AC50 in [3] was 5.76 µM (active); in assay [4], 6.08 µM (active).
For `Cc1cc(C)nc(OC(=O)c2ccc(Cl)cc2Cl)n1`, the EC50 was > 120 µM (not active) in assay [5], 10.9 µM (active) in [6] and 11.4 µM (active) in [8]. In [7], the half-maximal activity concentration (AC50) was 84.3 µM (active).
`COc1ccc(NC(=O)Nc2ccc3c(c2)OCO3)c(C)c1`: the IC50 in assay [9] is > 47.1 µM (inactive). In addition, in assay [10], the EC50 is > 53 µM (inactive).
The like results for `Cc1ccc(OCCOC(=O)Cn2nc(C)c([N+](=O)[O-])c2C)cc1` were, in that order, > 47.1 µM (inactive) and > 53 µM (inactive).
Turning to `N#C/C(=C(/O)Cc1cccc2ccccc12)c1nc2ccccc2s1`, the IC50 in [9] is 2.49 µM (active). The figures for the EC50 in [11], in [12] and in assay [10] were 3.17 µM (active), 2.91 µM (active) and 3.14 µM (active), respectively.
As to `Cn1c(C(=O)NCCc2ccccc2)cc(=O)n(C)c1=O`, the IC50 in [9] is > 47.1 µM (inactive). Besides, the EC50 in assay [10] is > 53 µM (inactive).
The matching figures for `COc1ccc(-n2ncc(C(C)NS(=O)(=O)c3cc(C)sc3C)c2C)cc1` (stereo not given): > 47.1 µM (inactive) and > 53 µM (inactive).
The like results for `O=C(NC(=S)NCCc1ccccn1)c1ccco1` were, in that order, > 47.1 µM (inactive) and > 53 µM (inactive).
Consider `Cc1ccc(N2C(=O)c3sc4nnc(C)c(=O)n4c3C2=O)cc1`, for which, in assay [9], the IC50 is > 47.1 µM (inactive). Further, in assay [10], the EC50 is > 53 µM (inactive).
For the compound `CN(CC1CCCO1)S(=O)(=O)c1ccc(C(=O)Nc2nc(-c3ccccn3)cs2)cc1` (stereo not given), the concentration at half-maximal activity (AC50) in assay [7] is 2.42 µM (active).
Regarding `Cc1nnc(NC(=O)C2CCCN(c3ncccn3)C2)s1` (stereo not given), the IC50 in [9] was > 47.1 µM (inactive). The EC50 in [10] was > 53 µM (inactive).
`O=C([O-])c1cc(-c2ccccc2)cc(-c2ccccc2)[n+]1Cc1ccccc1`: in assay [7], the AC50 was 1.96 µM (active).
`Cc1ccc(OC(=O)c2ccc([N+](=O)[O-])cc2Cl)cn1`: the EC50 in assay [1] was 4.92 µM (active). In addition, the AC50 in assay [2] is 11.2 µM (active).
The like results for `COc1cc(C=C(c2nc3ccccc3s2)c2nc3ccccc3s2)ccc1O` were, in that order, 5.08 µM (active) and > 380 µM (inactive).
Consider `Cc1c2cnn(CC(=O)NC3CCCC3)c(=O)c2c(C)n1Cc1ccccc1`, for which the IC50 in assay [9] is > 47.1 µM (inactive). Also, the values for the EC50 in assay [10] and in assay [13] were > 53 µM (inactive) and 51.2 µM (active), respectively.
Take `Cc1cccc(C)c1OCC(=O)Nc1oc(-c2ccccc2)c(-c2ccccc2)c1C#N`: in [9], the IC50 was > 47.1 µM (inactive). The EC50 in assay [10] is > 53 µM (inactive).
`Cc1[nH]c2c(ccc3ccccc32)c1C1C(CCN)C1(C)C` (stereo not given): the EC50 is 2.56 µM (active) in assay [14] and 13.2 µM (active) in [15]. In addition, the concentration at half-maximal activity (AC50) in assay [7] was 15.1 µM (active).
On to `Cc1ccc(SCc2n[nH]c3c2C(c2ccco2)C(C#N)=C(N)O3)cc1` (stereo not given), for which the EC50 in [1] is 6.19 µM (active). Further, in assay [2], the concentration at half-maximal activity (AC50) was < 0.018 µM (active).
Turning to `O=[N+]([O-])c1ccc(N2CCCC(C(F)(F)F)C2)c2ccncc12` (stereo not given), the EC50 in [5] is > 120 µM (not active); in [6], > 120 µM (not active); in [8] it was > 120 µM (not active); in [1] it was 10.8 µM (active). The AC50 in assay [2] was > 380 µM (inactive).
As to `Cc1cc(O)c(C2(O)C(=O)Nc3cc(Br)ccc32)cc1C` (stereo not given), in [9], the IC50 was > 47.1 µM (inactive). Also, the EC50 in assay [10] was > 53 µM (inactive).
Regarding `CC1=C(C)/C(=N/OC(=O)c2cccc([N+](=O)[O-])c2)C=CC1=O`, the results for the EC50 in assay [16], in assay [1] and in assay [17] were 9.44 µM (active), 0.418 µM (active) and 9.24 µM (active), respectively. For the same compound, the AC50 in assay [2] was > 380 µM (inactive).
On to `O=C1CC(NC(=O)C(F)(F)F)=NN1c1ccccc1`, for which, in assay [1], the EC50 is 5.51 µM (active). In [2], the half-maximal activity concentration (AC50) was 6.86 µM (active).
